Data from patent US12162872B2, “Cycloalkylurea derivative” (Sumitomo Pharma Co., Ltd., priority 2019, dated 2024).

Biological target: T1, Human orexin receptor type 2 (Homo sapiens, UniProt O43614)
T1 construct: expressed in transfected cells; host or cells: CHO cells (transient expression)
T1 sequence (O43614 1-444): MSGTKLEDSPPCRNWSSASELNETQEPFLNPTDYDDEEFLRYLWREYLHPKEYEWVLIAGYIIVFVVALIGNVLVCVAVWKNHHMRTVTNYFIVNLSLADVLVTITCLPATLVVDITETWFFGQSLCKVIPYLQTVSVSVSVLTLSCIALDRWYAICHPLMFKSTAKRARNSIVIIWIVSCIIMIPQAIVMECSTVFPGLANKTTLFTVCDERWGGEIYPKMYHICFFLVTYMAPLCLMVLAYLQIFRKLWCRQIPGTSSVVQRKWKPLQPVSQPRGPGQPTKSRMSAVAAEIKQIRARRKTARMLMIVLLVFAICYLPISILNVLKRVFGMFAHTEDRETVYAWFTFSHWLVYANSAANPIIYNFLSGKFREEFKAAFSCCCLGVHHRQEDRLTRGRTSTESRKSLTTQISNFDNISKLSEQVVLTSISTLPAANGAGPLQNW
Assay: Test 2: Evaluation of agonist activity for orexin receptor type 2 (aequorin luminescence, intracellular calcium mobilization in CHO cells)
Assay type: cell-based
Details: relative percentage of luminescence for the luminescence (100%) of Orexin A (100 pM); CHO cells transiently expressing human orexin receptor type 2 and apoaequorin; Orexin A Lot. 671009
Experimental: Test 2: Evaluation of Agonist Activity for Orexin Receptor Type 2
Human orexin receptor type 2 and apoaequorin were transiently expressed in CHO cells, and the agonist activity was evaluated based on intracellular calcium mobilization with ligand stimulation. The CHO cells transiently-expressed human orexin receptor type 2 and apoaequorin were seeded on a 384-well plate by 2,000 cells/well, and then incubated for 16-22 hours. After the plate was returned to room temperature, Coelenterazine hcp (final concentration: 1 μM) was added to the plate, and the plate was allowed to stand at room temperature for 2 hours. And then, Orexin A (PEPTIDE INSTITUTE, INC., Lot. 671009) or each test compound was added to the plate, and the luminescence of the cells was measured with FDSS7000 (Hamamatsu Photonics K.K.), wherein Orexin A and each test compound were dissolved in DMSO (final concentration: 0.1%), and diluted with a buffer (Hanks, 20 mM HEPES, 0.1% BSA). The agonist activity of each test compound for orexin receptor type 2 was calculated as relative percentage of luminescence for the luminescence (100%) of Orexin A (100 pM).

CC(C)N1CCC(C)(O[C@H]2CCCC(F)(F)[C@@H]2NC(=O)N2CCC(C)(c3noc([C@@H]4C[C@@H]4F)n3)CC2)CC1 [Example 109, N-[(1R,6S)-2,2-difluoro-6-{[4-methyl-1-(propan-2-yl)piperidin-4-yl]oxy}cyclohexyl]-4-{5-[(1S,2S)-2-fluorocyclopropyl]-1,2,4-oxadiazol-3-yl}-4-methylpiperidine-1-carboxamide]
agonist activity (%): 359%

CC(C)N1CCN([C@H]2CCCC(F)(F)[C@@H]2NC(=O)N2CCC(C)(c3noc([C@@H]4C[C@@H]4F)n3)CC2)[C@@H](C)C1 [Example 110, N-{(1R,6S)-2,2-difluoro-6-[(2S)-2-methyl-4-(propan-2-yl)piperazin-1-yl]cyclohexyl}-4-{5-[(1S,2S)-2-fluorocyclopropyl]-1,2,4-oxadiazol-3-yl}-4-methylpiperidine-1-carboxamide]
agonist activity (%): 380%

CC(C)N1CCN([C@H]2CCCC(F)(F)[C@@H]2NC(=O)N2CCC(C)(c3noc([C@@H]4C[C@@H]4F)n3)CC2)[C@H](C)C1 [Example 111, N-{(1R,6S)-2,2-difluoro-6-[(2R)-2-methyl-4-(propan-2-yl)piperazin-1-yl]cyclohexyl}-4-{5-[(1S,2S)-2-fluorocyclopropyl]-1,2,4-oxadiazol-3-yl}-4-methylpiperidine-1-carboxamide]
agonist activity (%): 382%

CC(C)N(C)[C@@H]1CCN([C@H]2CCCC(F)(F)[C@@H]2NC(=O)N2CCC(C)(c3noc([C@@H]4C[C@@H]4F)n3)CC2)C1 [Example 112, N-[(1R,6S)-2,2-difluoro-6-{(3R)-3-[methyl(propan-2-yl)amino]pyrrolidin-1-yl}cyclohexyl]-4-{5-[(1S,2S)-2-fluorocyclopropyl]-1,2,4-oxadiazol-3-yl}-4-methylpiperidine-1-carboxamide]
agonist activity (%): 376%

CC(C)N1CC[C@@H](N(C)[C@H]2CCCC(F)(F)[C@@H]2NC(=O)N2CCC(C)(c3noc([C@@H]4C[C@@H]4F)n3)CC2)C1 [Example 113, N-[(1R,6S)-2,2-difluoro-6-{methyl[(3R)-1-(propan-2-yl)pyrrolidin-3-yl]amino}cyclohexyl]-4-{5-[(1S,2S)-2-fluorocyclopropyl]-1,2,4-oxadiazol-3-yl}-4-methylpiperidine-1-carboxamide]
agonist activity (%): 374%

CC(C)N(C)C1CCN([C@H]2CCCC(F)(F)[C@@H]2NC(=O)N2CCC(C)(c3noc([C@@H]4C[C@@H]4F)n3)CC2)CC1 [Example 114, N-[(1R,6S)-2,2-difluoro-6-{4-[methyl(propan-2-yl)amino]piperidin-1-yl}cyclohexyl]-4-{5-[(1S,2S)-2-fluorocyclopropyl]-1,2,4-oxadiazol-3-yl}-4-methylpiperidine-1-carboxamide]
agonist activity (%): 438%

CN(C1CC1)[C@H]1CCN([C@H]2CCCC(F)(F)[C@@H]2NC(=O)N2CCC(C)(c3noc([C@@H]4C[C@@H]4F)n3)CC2)C1 [Example 115, N-[(1R,6S)-6-{(3S)-3-[cyclopropyl(methyl)amino]pyrrolidin-1-yl}-2,2-difluorocyclohexyl]-4-{5-[(1S,2S)-2-fluorocyclopropyl]-1,2,4-oxadiazol-3-yl}-4-methylpiperidine-1-carboxamide]
agonist activity (%): 403%

CC(C)CN1CC[C@H](O[C@H]2CCCC(F)(F)[C@@H]2NC(=O)N2CCC(C)(c3noc(C4CC4)n3)CC2)C1 [Example 116, 4-(5-cyclopropyl-1,2,4-oxadiazol-3-yl)-N-[(1R,6S)-2,2-difluoro-6-{[(3S)-1-(2-methylpropyl)pyrrolidin-3-yl]oxy}cyclohexyl]-4-methylpiperidine-1-carboxamide]
agonist activity (%): 488%

CC(C)N1CCN(C[C@H]2CCCC(F)(F)[C@@H]2NC(=O)N2CCC(C)(c3noc([C@@H]4C[C@@H]4F)n3)CC2)CC1 [Example 117, N-[(1R,6R)-2,2-difluoro-6-{[4-(propan-2-yl)piperazin-1-yl]methyl}cyclohexyl]-4-{5-[(1S,2S)-2-fluorocyclopropyl]-1,2,4-oxadiazol-3-yl}-4-methylpiperidine-1-carboxamide]
agonist activity (%): 465%

CC1(c2noc([C@@H]3C[C@@H]3F)n2)CCN(C(=O)N[C@@H]2[C@@H](O[C@H]3CCN(CC4CC4)C3)CCCC2(F)F)CC1 [Example 118, N-[(1R,6S)-6-{[(3S)-1-(cyclopropylmethyl)pyrrolidin-3-yl]oxy}-2,2-difluorocyclohexyl]-4-{5-[(1S,2S)-2-fluorocyclopropyl]-1,2,4-oxadiazol-3-yl}-4-methylpiperidine-1-carboxamide]
agonist activity (%): 524%

CC(C)(C)CN1CC[C@H](O[C@H]2CCCC(F)(F)[C@@H]2NC(=O)N2CCC(C)(c3noc(C4CC4)n3)CC2)C1 [Example 119, 4-(5-cyclopropyl-1,2,4-oxadiazol-3-yl)-N-[(1R,6S)-6-{[(3S)-1-(2,2-dimethylpropyl)pyrrolidin-3-yl]oxy}-2,2-difluorocyclohexyl]-4-methylpiperidine-1-carboxamide]
agonist activity (%): 378%

CC(C)(C)CN1CC[C@H](O[C@H]2CCCC(F)(F)[C@@H]2NC(=O)N2CCC(C)(c3noc([C@@H]4C[C@@H]4F)n3)CC2)C1 [Example 120, N-[(1R,6S)-6-{[(3S)-1-(2,2-dimethylpropyl)pyrrolidin-3-yl]oxy}-2,2-difluorocyclohexyl]-4-{5-[(1S,2S)-2-fluorocyclopropyl]-1,2,4-oxadiazol-3-yl}-4-methylpiperidine-1-carboxamide]
agonist activity (%): 387%

CC1(CN2CC[C@H](O[C@H]3CCCC(F)(F)[C@@H]3NC(=O)N3CCC(C)(c4noc([C@@H]5C[C@@H]5F)n4)CC3)C2)CC1 [Example 121, N-[(1R,6S)-2,2-difluoro-6-({(3S)-1-[(1-methylcyclopropyl)methyl]pyrrolidin-3-yl}oxy)cyclohexyl]-4-{5-[(1S,2S)-2-fluorocyclopropyl]-1,2,4-oxadiazol-3-yl}-4-methylpiperidine-1-carboxamide]
agonist activity (%): 379%

CC1(c2noc(C3CC3)n2)CCN(C(=O)N[C@@H]2[C@@H](O[C@H]3CCN(CC4CC4)C3)CCCC2(F)F)CC1 [Example 122, N-[(1R,6S)-6-{[(3S)-1-(cyclopropylmethyl)pyrrolidin-3-yl]oxy}-2,2-difluorocyclohexyl]-4-(5-cyclopropyl-1,2,4-oxadiazol-3-yl)-4-methylpiperidine-1-carboxamide]
agonist activity (%): 369%

CC(C)N1CCC(N(C)[C@H]2CCCC(F)(F)[C@@H]2NC(=O)N2CCC(C)(c3noc([C@@H]4C[C@@H]4F)n3)CC2)CC1 [Example 123, N-[(1R,6S)-2,2-difluoro-6-{methyl[1-(propan-2-yl)piperidin-4-yl]amino}cyclohexyl]-4-{5-[(1S,2S)-2-fluorocyclopropyl]-1,2,4-oxadiazol-3-yl}-4-methylpiperidine-1-carboxamide]
agonist activity (%): 366%

CC1(c2noc([C@@H]3C[C@@H]3F)n2)CCN(C(=O)N[C@@H]2[C@@H](N3CCC(N4CCCC4)CC3)CCCC2(F)F)CC1 [Example 124, N-{(1R,6S)-2,2-difluoro-6-[4-(pyrrolidin-1-yl)piperidin-1-yl]cyclohexyl}-4-{5-[(1S,2S)-2-fluorocyclopropyl]-1,2,4-oxadiazol-3-yl}-4-methylpiperidine-1-carboxamide]
agonist activity (%): 391%

CC(C)N1CC2CN([C@H]3CCCC(F)(F)[C@@H]3NC(=O)N3CCC(C)(c4noc([C@@H]5C[C@@H]5F)n4)CC3)CC2C1 (stereo partly drawn) [Example 125, N-{(1R,6S)-2,2-difluoro-6-[5-(propan-2-yl)hexahydropyrrolo[3,4-c]pyrrol-2(1H)-yl]cyclohexyl}-4-{5-[(1S,2S)-2-fluorocyclopropyl]-1,2,4-oxadiazol-3-yl}-4-methylpiperidine-1-carboxamide]
agonist activity (%): 402%

CC1(CN2CC[C@H](O[C@H]3CCCC(F)(F)[C@@H]3NC(=O)N3CCC(C)(c4noc(C5CC5)n4)CC3)C2)CC1 [Example 126, 4-(5-cyclopropyl-1,2,4-oxadiazol-3-yl)-N-[(1R,6S)-2,2-difluoro-6-({(3S)-1-[(1-methylcyclopropyl)methyl]pyrrolidin-3-yl}oxy)cyclohexyl]-4-methylpiperidine-1-carboxamide]
agonist activity (%): 394%

CC(C)N1CCC2(CCN([C@H]3CCCC(F)(F)[C@@H]3NC(=O)N3CCC(C)(c4noc([C@@H]5C[C@@H]5F)n4)CC3)CC2)C1 [Example 127, N-{(1R,6S)-2,2-difluoro-6-[2-(propan-2-yl)-2,8-diazaspiro[4.5]decan-8-yl]cyclohexyl}-4-{5-[(1S,2S)-2-fluorocyclopropyl]-1,2,4-oxadiazol-3-yl}-4-methylpiperidine-1-carboxamide]
agonist activity (%): 367%
